Results as given in ChEMBL document CHEMBL1129098, “Structure-activity dependency of new bacterial tryptophanyl tRNA synthetase inhibitors” (Bioorg Med Chem Lett, 1996).
In brackets after ≈: the same amount, converted by molar mass.

How the values were obtained:
Staphylococcus aureus = test: Antibacterial activity against Staphylococcus aureus; format: functional
[1] = Inhibition of tryptophanyl tRNA synthetase isolated from Staphylococcus aureus

SMILES	MIC (Staphylococcus aureus) [µg/mL]	I50 [1] [ng/mL]
CNC1=NC(=O)[C@H]([C@H](CC(=O)OC(C)(C)C)c2c[nH]c3ccccc23)O1	> 512	> 100000
CNC1=NC(=O)[C@H](C(C)(C)c2c[nH]c3ccccc23)O1	32 (≈ 118 µM)	580
CNC1=NC(=O)[C@H]([C@@H](C)c2c[nH]c3ccccc23)O1	8 (≈ 31.1 µM)	500
CNC1=NC(=O)[C@H]([C@@H](CC(=O)OC(C)(C)C)c2c[nH]c3ccccc23)O1	> 512	> 100000
CNC1=NC(=O)[C@H]([C@H](C[N+](=O)[O-])c2c[nH]c3ccccc23)O1	64 (≈ 212 µM)	2300
CNC1=NC(=O)[C@](C)([C@H](C)c2c[nH]c3ccccc23)O1	64 (≈ 236 µM)	1200
CNC1=NC(=O)[C@H]([C@](C)(O)c2c[nH]c3ccccc23)O1	> 64	> 100000
CNC1=NC(=O)[C@H]([C@@](C)(O)c2c[nH]c3ccccc23)O1	0.25 (≈ 0.915 µM)	46
CNC1=NC(=O)[C@](C)([C@@H](C)c2c[nH]c3ccccc23)O1	> 512	> 100000
CNC1=NC(=O)[C@H]([C@@H](C[N+](=O)[O-])c2c[nH]c3ccccc23)O1	> 64	> 100000
CNC1=NC(=O)[C@H](Cc2c[nH]c3ccccc23)O1	64 (≈ 263 µM)	1550
CNC1=NC(=O)[C@H]([C@H](C)c2c[nH]c3ccccc23)O1 [INDOMYCIN]	0.125 (≈ 0.486 µM)	16

The next lines start with results.

MIC (Staphylococcus aureus) [µg/mL]	SMILES	I50 [1] [ng/mL]
> 512	CNC1=NC(=O)[C@H]([C@H](CN)c2c[nH]c3ccccc23)O1	> 100000
> 64	CNC1=NC(=O)[C@H]([C@@H](O)c2c[nH]c3ccccc23)O1	44000
> 512	CC[C@@H](c1c[nH]c2ccccc12)[C@@H]1OC(NC)=NC1=O	22000
64 (≈ 236 µM)	CC[C@H](c1c[nH]c2ccccc12)[C@@H]1OC(NC)=NC1=O	250
> 512	CNC1=NC(=O)[C@H]([C@@H](CC(=O)O)c2c[nH]c3ccccc23)O1	> 100000
> 512	CNC1=NC(=O)[C@H]([C@H](CC(=O)O)c2c[nH]c3ccccc23)O1	> 100000
> 512	CNC1=NC(=O)[C@H]([C@H](/C=N\O)c2c[nH]c3ccccc23)O1	> 100000
> 64	CNC1=NC(=O)[C@H]([C@H](O)c2c[nH]c3ccccc23)O1	4000
